From PubChem BioAssay AID1963846 (Molecular Pharmacology Branch, DTP, NCI, 2024)

System: 454973-116-R2-J3-PDC complex spheroid viability
Assay: Anticancer human tumor 454973-116-R2-J3-PDC patient-derived pancreatic carcinoma cell line growth inhibition [POLQ]
Conditions: for IC50: curve of first compound; for viability, T/C: stronger effect = lower value
Description: Multicellular complex tumor spheroid response to Polymerase (POL) inhibitors (novobiocin, ART-558, RP6685) in combination with a variety of drugs and investigational agents in selected tumor cell lines
The POL inhibitors (novobiocin, ART-558, and RP6685) were evaluated both individually and in combination with standard of care and investigational anticancer small molecules within a complex spheroid model of solid tumors. . Complex spheroids include a stromal component modeled by human endothelial cells (HUVEC) and fibroblasts modeled by human mesenchymal stem cells (MSCs). The concentration ranges selected for each drug and investigational agent were based upon clinically achievable concentrations if the clinical Cmax of the agent was known.
Compounds. The drugs and investigational agents: novobiocin (NSC847541), ART-558 (NSC835418), RP-6685 (NSC848927), peposertib (NSC802822), ceralasertib (NSC780249), elimusertib (NSC800525), camonsertib (NSC841442), AZD-1390 (NSC803789), olaparib (NSC753686), talazoparib (NSC767125), rucaparib (NSC756644), sotorasib (NSC818433), MRTX-1133 (NSC836407), SN-38 (NSC673596), topotecan (NSC609699), epotoside (NSC141540), doxorubicin (NSC123127), gemcitabine (NSC613327), 5-fluorouracil (NSC19893), paclitaxel (NSC125973), vemurafenib (NSC761431), MSA-2 (NSC828583), SN-011 (NSC837082), adavosertib (NSC754352), prexasertib (NSC758257), carboplatin (NSC241240) and oxaliplatin (NSC266046), were obtained from the National Cancer Institute (NCI) Developmental Therapeutics Program Chemical Repository (21). The FDA-approved anticancer drug set is available from the Developmental Therapeutics Program at https://dtp.cancer.gov/organization/dscb/obtaining/. […] The stock solutions were prepared in dimethyl sulfoxide (DMSO, Sigma-Aldrich, St. Louis, MO, cat. D2650), except for the platinum compounds which were prepared in saline (Quality Biological, Gaithersburg, MD, cat. 114-055-101), at 800-fold the tested concentration and stored at -70 degrees C prior to their use. All drugs and investigational agents were tested over a range starting from a high concentration at or near the clinical Cmax and decreasing in half-log increments. If the clinical Cmax for an agent had not been determined, the highest concentration tested was 10 microM, except for SN-38, which was tested at a high concentration of 1 microM.
Cell Culture. All cells were maintained in an incubator at 37 degrees C and 5% CO2 with 95% humidity. The PDC lines were cultured according to standard operating procedures established by the NCI PDMR (https://pdmr.cancer.gov). Table 3 of the manuscript, lists the cell lines along with the number of the three cell types plated to form the mct-spheroids and media for tumor cell growth. After thawing, all PDC lines, except 997537-175-T-J1-PDC and 415267-285-R-J2-PDC, were cultured in Matrigel-coated flasks prepared with a working solution of 1X Ham's F-12 nutrient mix, without supplementation (Thermo Fisher Scientific, cat. 11765054), 100 U/mL penicillin-streptomycin (Thermo Fisher Scientific, cat. 15140122), and 2.5% Matrigel (Corning Inc., Corning, NY, cat. 354248) for the first three passages. The two PDC lines 997537-175-T-J1-PDC and 415267-285-R-J2-PDC were cultured on uncoated flasks. The 857933-349-R-J2-PDC line was cultured in 6C/Colon 1B media containing advanced DMEM/F-12 (Thermo Fisher Scientific, cat. 12634028), 10 mM HEPES (Thermo Fisher Scientific, cat. 15630080), 1X GlutaMAX supplement (Thermo Fisher Scientific, cat. 35050061), 0.1 mg/mL primocin (InvivoGen, San Diego, CA, cat. ant-pm-2), 10% defined fetal bovine serum, heat inactivated (HyClone Laboratories Inc., Logan, UT, cat. SH30070.03HI), 50% L-WRN conditioned media (ATCC, cat. CRL-3276), 1.25 mM N-Acetyl-L-cysteine (Sigma-Aldrich, cat. A9165), 10 mM nicotinamide (Sigma-Aldrich, cat. N0636), 1X B-27 supplement (Thermo Fisher Scientific, cat. 17504044), 1X N-2 supplement (Thermo Fisher Scientific, cat. […]

[1] = second compound 0.0316 µM, first compound 0.0316 µM
[2] = second compound 0.0316 µM, first compound 0.1 µM
[3] = second compound 0.0316 µM, first compound 0.316 µM
[4] = second compound 0.0316 µM, first compound 1 µM
[5] = second compound 0.0316 µM, first compound 3.16 µM
[6] = second compound 0.0316 µM, first compound 10 µM
[7] = second compound 0.1 µM, first compound 0.0316 µM
[8] = second compound 0.1 µM, first compound 0.1 µM
[9] = second compound 0.1 µM, first compound 0.316 µM
[10] = second compound 0.1 µM, first compound 1 µM
[11] = second compound 0.1 µM, first compound 3.16 µM
[12] = second compound 0.1 µM, first compound 10 µM
[13] = second compound 0.316 µM, first compound 0.0316 µM
[14] = second compound 0.316 µM, first compound 0.1 µM
[15] = second compound 0.316 µM, first compound 0.316 µM
[16] = second compound 0.316 µM, first compound 1 µM
[17] = second compound 0.316 µM, first compound 3.16 µM
[18] = second compound 0.316 µM, first compound 10 µM
[19] = second compound 1 µM, first compound 0.0316 µM
[20] = second compound 1 µM, first compound 0.1 µM
[21] = second compound 1 µM, first compound 0.316 µM
[22] = second compound 1 µM, first compound 1 µM
[23] = second compound 1 µM, first compound 3.16 µM
[24] = second compound 1 µM, first compound 10 µM
[25] = second compound 3.16 µM, first compound 0.0316 µM
[26] = second compound 3.16 µM, first compound 0.1 µM
[27] = second compound 3.16 µM, first compound 0.316 µM
[28] = second compound 3.16 µM, first compound 1 µM
[29] = second compound 3.16 µM, first compound 3.16 µM
[30] = second compound 3.16 µM, first compound 10 µM
[31] = second compound 10 µM, first compound 0.0316 µM
[32] = second compound 10 µM, first compound 0.1 µM
[33] = second compound 10 µM, first compound 0.316 µM
[34] = second compound 10 µM, first compound 1 µM
[35] = second compound 10 µM, first compound 3.16 µM
[36] = second compound 10 µM, first compound 10 µM
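Note: spheroids exposed to drugs for seven days before measurement.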
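Throughout, for viability, T/C: percent viability relative to DMSO vehicle control wells taken as 100%.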

COc1ccc([C@@H](O)c2cc(-c3ncnc4cc(N5CCOCC5)ccc34)c(F)cc2Cl)nn1 + COC1C(OC(N)=O)C(O)C(Oc2ccc3c(O)c(NC(=O)c4ccc(O)c(CC=C(C)C)c4)c(=O)oc3c2C)OC1(C)C
IC50 (second compound 0.0316 µM): 9.5 µM | IC50 (second compound 0.1 µM): > 10 µM | IC50 (second compound 0.316 µM): > 10 µM | IC50 (second compound 1 µM): > 10 µM | IC50 (second compound 3.16 µM): > 10 µM | IC50 (second compound 10 µM): > 10 µM | viability, T/C [1]: 97.9% | viability, T/C [2]: 99.5% | viability, T/C [3]: 99% | viability, T/C [4]: 94.4% | viability, T/C [5]: 75.2% | viability, T/C [6]: 48.8% | viability, T/C [7]: 104% | viability, T/C [8]: 106% | viability, T/C [9]: 96.7% | viability, T/C [10]: 98.2% | viability, T/C [11]: 73.2% | viability, T/C [12]: 52.5% | viability, T/C [13]: 112% | viability, T/C [14]: 107% | viability, T/C [15]: 98.3% | viability, T/C [16]: 95% | viability, T/C [17]: 71.7% | viability, T/C [18]: 51.3% | viability, T/C [19]: 113% | viability, T/C [20]: 102% | viability, T/C [21]: 115% | viability, T/C [22]: 103% | viability, T/C [23]: 65.6% | viability, T/C [24]: 51.4% | viability, T/C [25]: 112% | viability, T/C [26]: 107% | viability, T/C [27]: 98.8% | viability, T/C [28]: 88.3% | viability, T/C [29]: 78.8% | viability, T/C [30]: 54.2% | viability, T/C [31]: 116% | viability, T/C [32]: 93.3% | viability, T/C [33]: 93.3% | viability, T/C [34]: 83.5% | viability, T/C [35]: 76.3% | viability, T/C [36]: 50.6%

O=C(c1cc(Cc2n[nH]c(=O)c3ccccc23)ccc1F)N1CCN(C(=O)C2CC2)CC1 + COC1C(OC(N)=O)C(O)C(Oc2ccc3c(O)c(NC(=O)c4ccc(O)c(CC=C(C)C)c4)c(=O)oc3c2C)OC1(C)C
IC50 (second compound 0.0316 µM): > 10 µM | IC50 (second compound 0.1 µM): > 10 µM | IC50 (second compound 0.316 µM): > 10 µM | IC50 (second compound 1 µM): > 10 µM | IC50 (second compound 3.16 µM): > 10 µM | IC50 (second compound 10 µM): > 10 µM | viability, T/C [1]: 103% | viability, T/C [2]: 105% | viability, T/C [3]: 96.9% | viability, T/C [4]: 116% | viability, T/C [5]: 93.7% | viability, T/C [6]: 61.6% | viability, T/C [7]: 106% | viability, T/C [8]: 113% | viability, T/C [9]: 106% | viability, T/C [10]: 116% | viability, T/C [11]: 94.6% | viability, T/C [12]: 63.2% | viability, T/C [13]: 110% | viability, T/C [14]: 107% | viability, T/C [15]: 99.4% | viability, T/C [16]: 113% | viability, T/C [17]: 98.3% | viability, T/C [18]: 69.7% | viability, T/C [19]: 121% | viability, T/C [20]: 104% | viability, T/C [21]: 104% | viability, T/C [22]: 105% | viability, T/C [23]: 97.5% | viability, T/C [24]: 63.3% | viability, T/C [25]: 115% | viability, T/C [26]: 104% | viability, T/C [27]: 109% | viability, T/C [28]: 103% | viability, T/C [29]: 94.7% | viability, T/C [30]: 64.2% | viability, T/C [31]: 106% | viability, T/C [32]: 94% | viability, T/C [33]: 95.6% | viability, T/C [34]: 107% | viability, T/C [35]: 99.2% | viability, T/C [36]: 59.4%
